Experimental data taken from PMC10070462, “Drug cytotoxicity screening using human intestinal organoids propagated with extensive cost-reduction strategies” (Scientific Reports, 2023).
Entries after “also recorded” stand apart in the source; their conditions may differ. Read-outs that look alike come from different tables or passages of the source.

Key:
[1] = system: hiPSO-derived IECs; test: Cell viability of dispersed hiPSO-derived IECs (CellTiter-Glo 3D); details: for IEC-selective dose-dependent cytotoxicity: dose-dependent analysis, dispersed IECs from hiPSOs and hPIOs versus Caco-2 cells, Fig. 4D; for effect of kinase inhibitor on dose-dependent cytotoxicity induced by YC-1: 10 µM inhibitor with 0-30 µM YC-1, 48 h, Fig. 6A-C; for toxicity against IECs (cell viability): indicated doses, dispersed hiPSO-derived IECs, Fig. 5A, B
[2] = system: hiPSO-derived IECs
[3] = system: hPIO-derived IECs; test: Cell viability of dispersed hPIO-derived IECs (CellTiter-Glo 3D); details: 1 µM, 48 h, dispersed IECs of hPIOs, Fig. 4A
[4] = system: CCND1 and VIL1 mRNA in hiPSO-derived IECs; test: qRT-PCR of mRNA levels in hiPSO-derived IECs; format: cell-based, human; details: 0, 1, 10 µM, 48 h, Fig. 5E
Description: Total cellular RNA was extracted using RNeasy Mini Kit (Qiagen). Reverse transcription was performed using a high-capacity cDNA Reverse Transcription Kit (Thermo Fisher Scientific). The mRNA levels were measured by fluorescence real-time PCR on StepOnePlus (Thermo Fisher Scientific) using PrimeTime qPCR Probes (Integrated DNA Technologies). The 18S rRNA levels were used as an internal control to normalize the mRNA levels of each gene.

[5] = system: caspase-8, RIP1, caspase-3, PARP, XIAP in hiPSO-derived IECs; test: Western blot analysis of apoptotic proteins in hiPSO-derived IECs; format: cell-based, human; details: 0, 1, 10 µM, 14 h, Fig. 5D
Description: After the preparation of lysis buffer [50 mM Tris-HCl (pH 8.0), 150 mM NaCl, 1% Triton X-100, 0.5% deoxycholate, 0.1% sodium dodecyl sulfate (SDS), and a protease inhibitor cocktail (Nacalai Tesque)], cell lysates were subjected to SDS-polyacrylamide gel electrophoresis and transferred onto a polyvinylidene difluoride membrane. The membrane was blocked with Blocking One (Nacalai Tesque) for 1 h at room temperature (RT), incubated overnight at 4 °C with primary antibodies against caspase-3 (1:1000), caspase-8 (1:1000), PARP (1:1000), RIP1 (1:1000), XIAP (1:100), and β-actin (1:200), and incubated with secondary antibodies for 1 h at RT. Chemiluminescent signals were determined using Fusion Solo S (Vilber). A pre-stained ladder protein marker (XL-Ladder Broad, APRO Science) that was not visible as a chemiluminescent signal was used to determine the position of molecular weights. Full-scan images were represented in the Supplementary Information.

[6] = system: Caco-2 cells; test: Cell viability of Caco-2 cells (CellTiter-Glo 3D), counter-assay; format: cell-based, human; details: dose-dependent analysis, Fig. 4D

Question: For `CC1=C(/C=C/C(C)=C/C=C/C(C)=C/C(=O)Nc2ccc(O)cc2)C(C)(C)CCC1` [4-HPR, N-(4-hydroxyphenyl)retinamide], which IEC-selective dose-dependent cytotoxicity [1] is on record?
Answer: The IEC-selective dose-dependent cytotoxicity was “identified”.

Question: Which “cytotoxic effect (cell viability)” value [2] does the source give for `CCc1c2c(nc3ccc(O)cc13)-c1cc3c(c(=O)n1C2)COC(=O)[C@]3(O)CC` [SN-38] here?
Answer: The value was “confirmed”.

Question: What about the “cytotoxic effect (cell viability)” value [3] of the same compound?
Answer: Its value is “confirmed”.

Question: With `C[S+]([O-])c1ccc(-c2nc(-c3ccncc3)c(-c3ccc(F)cc3)[nH]2)cc1` (stereo not drawn) [SB203580] as the compound, how does the “effect of kinase inhibitor on dose-dependent cytotoxicity induced by YC-1” value [1] read?
Answer: Its value is “almost no effect”.

Question: For `COC(=O)Nc1c(N)nc(-c2nn(Cc3ccccc3F)c3ncc(F)cc23)nc1N` [vericiguat], which “toxicity against IECs (cell viability)” value ([1]; 48 h) is on record?
Answer: Its value is “little toxicity”.

Question: With `COC(=O)c1ccc(O)c(NC(=O)COc2ccc(C34CC5CC(CC(C5)C3)C4)cc2)c1` [LW6] as the compound, how does the “toxicity against IECs (cell viability)” value ([1]; 48 h) read?
Answer: The value was “little toxicity”.

Question: For `CCCCCCCC/C=C\CCCCCCCC(=O)NCCc1ccc(O)c(O)c1` [N-oleoyldopamine], which IEC-selective dose-dependent cytotoxicity [2] is on record?
Answer: The IEC-selective dose-dependent cytotoxicity was “identified”.

Question: With `OCc1ccc(-c2nn(Cc3ccccc3)c3ccccc23)o1` [YC-1, 3-(5′-hydroxymethyl-2′-furyl)-1-benzyl indazole] as the compound, how does the “CCND1 mRNA levels” value [4] read?
Answer: Its value is “downregulated”.

Question: What about the “VIL1 mRNA levels” value [4] of the same compound?
Answer: The value was “downregulated”.

Question: And the IEC-selective dose-dependent cytotoxicity [2]?
Answer: The IEC-selective dose-dependent cytotoxicity was “identified”.

Question: And the “cytotoxicity against IECs” value [2]?
Answer: Its value is “significant cytotoxicity”.

Question: What about the “anti-apoptotic protein XIAP level” value [5] of the same compound?
Answer: The value was “decreased”.

Question: And the “cleavage of caspase-8, RIP1, caspase-3 and PARP” value [5]?
Answer: Its value is “dose-dependently induced the cleavage”.

Question: What about the “cytotoxicity against Caco-2 cells” value [6] of the same compound?
Answer: Its value is “least cytotoxicity; also recorded: very little”.

Question: For `CS(=O)(=O)c1ccc(Oc2cc(F)cc(C#N)c2)c2c1[C@H](O)C(F)(F)C2` [PT-2385], which “toxicity against IECs (cell viability)” value ([1]; 48 h) is on record?
Answer: Its value is “little toxicity”.

Question: How did the IEC-selective dose-dependent cytotoxicity [1] turn out when `CN(C)CC[C@H](CSc1ccccc1)Nc1ccc(S(=O)(=O)NC(=O)c2ccc(N3CCN(Cc4ccccc4-c4ccc(Cl)cc4)CC3)cc2)cc1[N+](=O)[O-]` [ABT-737] was run?
Answer: The IEC-selective dose-dependent cytotoxicity was “identified”.

Question: Which results are given for `COc1cccc(-c2cc(=O)c3ccccc3o2)c1N` [PD98059]?
Answer: inhibition of cytotoxicity of 1 µM YC-1 ([1]; 0-30 µM PD98059 with 1 µM YC-1, 48 h, Fig. 6D): in a dose-dependent manner; inhibition of cytotoxicity caused by 4-HPR ([1]; 10 µM PD98059 with 0-30 µM 4-HPR, 48 h, Fig. 6F): failed to inhibit; inhibition of cytotoxicity caused by ABT-737 ([1]; 10 µM PD98059 with 0-30 µM ABT-737, 48 h, Fig. 6E): failed to inhibit; inhibition of cytotoxicity caused by N-oleoyldopamine ([1]; 10 µM PD98059 with 0-30 µM N-oleoyldopamine, 48 h, Fig. 6H): failed to inhibit; inhibition of cytotoxicity caused by ivermectin ([1]; 10 µM PD98059 with 0-30 µM ivermectin, 48 h, Fig. 6G): failed to inhibit; inhibition of YC-1-induced cytotoxicity in IECs from hiPSOs expanded with Matrigel ([1]; 10 µM PD98059 with 1 µM YC-1, 48 h, Figure S5): inhibited; effect of kinase inhibitor on dose-dependent cytotoxicity induced by YC-1 [1]: substantially prevented

Question: With `Oc1c2ccccc2c2c3c(cccc13)N=N2` [SP600125] as the compound, how does the “effect of kinase inhibitor on dose-dependent cytotoxicity induced by YC-1” value [1] read?
Answer: Its value is “almost no effect”.
